pIC50: −log10 of the molar value.
Experiments:
[1] = test system: VCAM-1 expression in HUVECs; experiment: Inhibitory effect on expression of VCAM-1 in human umbilical vein-derived endothelial cells (HUVECs); format: cell-based
Experimental: HUVECs were suspended in 199 medium (Biocell Laboratories, Inc., Rancho Dominguez, Calif. USA) containing 20% fetal calf serum, 20 μg/ml endothelial cell growth factor derived from bovine brain and 100 μg/ml heparin, plated into 96-well microculture plates coated with collagen, and cultured at 37° C. in 5% CO2. When cells were grown to confluence, the cells received tumor necrosis factor-α (100 U/ml) and the test compound A, and cultured for 5 hours. After the cells were washed once with 199 medium, mouse anti-human VCAM-1 monoclonal antibody (2 μg/ml) was added, and the cells were incubated for 1 hour at room temperature. After the cells were washed twice, peroxidase-conjugated anti-mouse immunoglobulin antibody was added, and the cells were incubated for 1 hour at room temperature. After the cells were washed 3 times, a substrate for peroxidase, 2,2'-azino-bis(3-ethylbenzothiazolone-6-sulfonicacid), was added. After the plates were stood for 15 minutes at room temperature, absorbance at 405 nm with a reference wave length of 490 nm was measured with a 96-well microplate reader and was regarded as an indicator of VCAM-1 expression.

[2] = test system: Oxazolone-induced ear edema in mice; experiment: Oxazolone-induced ear edema in mice (intradermal administration, Experimental Example 2); format: in vivo, mouse
Experimental: […] On day 7, 5 μl of oxazolone solution was applied to each surface of the right ear. After 24 hours (day 8), the right and left ears were cut out with a puncher of 6 mm in diameter and weighed with an electronic reading balance. The difference in weight between the oxazolone-treated ear (right) and untreated ear (left) was taken to reflect the degree of ear edema. Compound A was dissolved in 20% 2-hydroxypropyl-β-cyclodextrinsolution containing 1% dimethyl sulfoxide and injected intradermally into the mouse right ear (25 μl/site) on day 7 (immediately before application of oxazolone).

[3] = test system: Oxazolone-induced ear edema in mice; experiment: Oxazolone-induced ear edema in mice (oral administration, Experimental Example 8); format: in vivo, mouse; conditions: for Ear edema (right ear-left ear), mean ± S.D.: sensitized, days 0 to 8, control 17.6 ± 1.1, p < 0.01
Experimental: Mice were sensitized by applying 50 μl of oxazolone solution (50 mg/ml in acetone) to their shaved abdomen on day 0. On day 7, 5 μl of oxazolone was applied to each surface of the right ear. After 24 hours, the right and left ears were cut out with a puncher of 6 mm in diameter and weighed with an electronic reading balance. The difference in weight between the treated ear (right) and untreated ear (left) was taken to reflect the degree of ear edema. Compound A was suspended in 0.5% methylcellulose solution and administered orally (0.1 ml/10 g body weight) on days 0 to 8.

[4] = test system: Picryl chloride-induced ear edema in mice; experiment: Picryl chloride-induced ear edema in mice (Experimental Example 3); format: in vivo, mouse; conditions: cyclophosphamide +, 10 μl/site intradermal, control 10.8 ± 1.3
Experimental: Cyclophosphamide (150 mg/kg) was administered subcutaneously to mice on day -2. The mice were sensitized twice by applying 50 μl of picryl chloride solution (70 mg/ml in ethanol) to their shaved abdomen on days 0 and 1. On day 13, 10 μl of picryl chloride solution (10 mg/ml in ethanol) was applied to each surface of the right ear. Two days later (on day 15), the right and left ears were cut out with a puncher of 6 mm in diameter and weighed with an electronic reading balance. The difference in weight between the treated (right) ear and the untreated (left) ear was taken as an indicator of edema. […] […] The group treated with cyclophosphamide and picryl chloride was taken as a control, and statistical significance was evaluated by Dunnett's test.

[5] = test system: Antigen (egg albumin)-induced eosinotaxis in lung of guinea pigs; experiment: Inhibitory effect on topical eosinotaxis in lung induced by antigen (Experimental Example 5); format: in vivo, guinea pig (male Hartley)
Experimental: Male Hartley guinea pigs (4 weeks old, Japan SLC) were bred under the homoiothermal (23±2° C.) and homohumidity (55±5%) conditions.
Compound A was dissolved in 20% 2-hydroxypropyl-β-cyclodextrin containing 1% dimethyl sulfoxide to a concentration of 0.01%.
Antigen (egg albumin, Sigma, 10 mg/ml in saline) was nebulized on guinea pigs for 10 minutes with an ultrasonic nebulizer (NE-U12, OMRON CORPORATION). One week later, the antigen was nebulized again in the same manner.
At one week after the second antigen inhalation, mepyramine (Sigma, 10 mg/ml in saline) was intraperitoneally administered by 1 ml/kg. Twenty minutes later, a solution of Compound A (0.01%) or the medium (control) was nebulized for 10 minutes with a jet nebulizer (Nippon Shoji, Ltd.). Immediately thereafter, the antigen (egg albumin, 10 mg/ml) was nebulized for 5 minutes with an ultrasonic nebulizer. Five hours later, the solution of Compound A (0.01%) or the medium was nebulized again for 10 minutes with a jet nebulizer. […] At 24 hours after the antigen nebulizing, the lung was washed three times with physiological saline (10 ml, 37° C.), and the total number of the cells in the collected lung washings was counted by a colter counter (MEK 4200, Nippon Koden). […] The number of eosinophils was calculated from the ratio of existing cells and the total cell number.

[6] = test system: CD11b expression in U937 cells; experiment: Effect on CD11b expression in human histiocytic leukemia cell line U937; format: cell-based; conditions: U-937, 72 h, PDB 10 ng/ml, 3 days, read-out: Inhibitory effect on CD11b expression (IC50)
Experimental: Effect on the expression of CD11b antigen, which constitutes the a chain of Mac-1, one of the adhesion molecules expressed on the surface of leukocytic cells, was investigated. U937 cells were suspended in RPMI1640 medium containing 20% fetal calf serum, plated with phorbol 12,13-dibutyrate (PDB, 10 ng/ml) and Compound A or Compound B into 96-well filtration plates (30,000 cells/well), and cultured for 3 days at 37° C. in 5% CO2. After the cells were washed once with RPMI1640 medium, rat anti-human CD11b monoclonal antibody (2 μg/ml) was added and the plates were kept for 1 hour on ice. After the cells were washed twice, peroxidase-conjugated anti-rat immunoglobulin antibody (1 μg/ml) was added, and the cells were kept for 1 hour on ice. After the cells were washed 3 times, o-phenylenediamine was added as a substrate for peroxidase. The plates were allowed to stand for 15 minutes at room temperature, and absorbance at 490 nm was measured with a 96-well plate reader. The absorbance was regarded as an indicator of CD11b antigen expression.

[7] = test system: TDI-induced rhinitis in guinea pig; experiment: Tolylene 2,4-diisocyanate (TDI)-induced rhinitis in guinea pig (Experimental Example 4); format: in vivo; conditions: for Number of leukocytes, mean ± S.D.: sensitized, control 20.0 ± 2.04, p < 0.01
Experimental: Guinea pigs (three to six per group) were sensitized by applying a mixture of TDI and ethyl acetate (1:7) with cotton buds to both of their nasal cavities under anesthetization with diethyl ether on days 0 to 3 and days 7 to 10. On days 27, 29, 31 and 35, the reaction of the guinea pigs was challenged by applying the same mixture to the nasal cavities in a similar manner as described above. Three hours after the last challenge, the guinea pigs were anesthetized with pentobarbital (30 mg/kg, i.p.), and the nasal cavities were washed with physiological saline. Number of leukocytes in the fluid obtained above was counted with an automatic blood cell counter. Compound A (0.1, 1 or 10 μg/20 μl/site×2/guinea pig) was dissolved in 20% hydroxypropyl-β-cyclodextrin solution containing 1% dimethyl sulfoxide and injected into the both nasal cavities of guinea pigs 1 hour before the last challenge (on day 35).

[8] = test system: Adhesion of guinea pig peritoneal cells to HUVECs; experiment: Cell adhesion of guinea pig peritoneal cells to human umbilical vein-derived endothelial cells (HUVECs); format: cell-based
Experimental: HUVECs were suspended in 199 medium containing 20% fetal calf serum, 20 μg/ml endothelial cell growth factor derived from bovine brain and 100 μg/ml heparin, plated into 96-well microculture plates coated with collagen, and cultured at 37° C. in 5% CO2. When cells were grown to confluence, interleukin 1 (10 U/ml) was added, and the cells were cultured for 24 hours. After the cells were washed once with 199 medium, leukotriene B4 (1 μM), Compound A and guinea pig peritoneal cells [300,000 cells/well, obtained by intraperitoneally injecting 0.1% oyster glycogen (25 ml) and recovering 5 hours later] were added, and the cells were incubated for 30 minutes at 37° C. in 5% CO2. After nonadherent cells were removed by inverting the plates, rose bengal solution (0.25% in phosphate-buffered physiological saline) was added and the plates were kept still for 5 minutes. The cells were washed twice with 199 medium. Ethanol (50% in phosphate-buffered physiological saline) was added (200 μl/well) and the cells were kept still for 30 minutes to allow the leakage of rose bengal dye incorporated into the cells. Absorbance at 520 nm was measured with a 96-well plate reader and the value obtained by subtracting absorbance of the well Containing HUVECs alone was taken as an indicator of cell adhesion.

Compound: COc1ccccc1NC(=O)NC1N=C(c2ccc(Cl)cc2)c2c(sc(C)c2C)-n2c(C)nnc21 (racemic) [Compound A, N-(4-(4-chlorophenyl)-2,3,9-trimethyl-6H-thieno[3,2-f][1,2,4]triazolo[4,3-a][1,4]diazepin-6-yl)-N'-(2-methoxyphenyl)urea]
- Inhibition of expression of VCAM-1 on HUVEC (in words) [1]: inhibited expression of VCAM-1 on HUVEC in a concentration-dependent manner
- inhibition at 1 pM ([1]; Homo sapiens, HUVEC, Compound A 1 pM, TNF-α 100 U/ml, 5 hours): 19.7%
- inhibition at 10 pM ([1]; Homo sapiens, HUVEC, Compound A 10 pM, TNF-α 100 U/ml, 5 hours): 67.1%
- inhibition at 0.0001 µM ([1]; Homo sapiens, HUVEC, Compound A 100 pM, TNF-α 100 U/ml, 5 hours): 82.3%
- inhibition at 0.001 µM ([1]; Homo sapiens, HUVEC, Compound A 1000 pM, TNF-α 100 U/ml, 5 hours): 80.8%
- Inhibition of ear edema (in words) ([2]; intradermal administration): inhibited ear edema in sensitized or unsensitized mice in a dose-dependent manner
- Ear edema (right ear-left ear), mean ± S.D. ([2]; sensitized, 1 μg/site intradermal, control 16.8 ± 0.7, p < 0.01): 15.0 ± 0.6 mg
- Ear edema (right ear-left ear), mean ± S.D. ([2]; sensitized, 10 μg/site intradermal, control 16.8 ± 0.7, p < 0.01): 13.3 ± 0.7 mg
- Ear edema (right ear-left ear), mean ± S.D. ([2]; unsensitized, 1 μg/site intradermal, control 7.7 ± 1.6, p < 0.05): 5.7 ± 1.1 mg
- Ear edema (right ear-left ear), mean ± S.D. ([2]; unsensitized, 10 μg/site intradermal, control 7.7 ± 1.6, p < 0.05): 5.3 ± 0.7 mg
- Inhibition of ear edema (in words) ([3]; oral administration): inhibited ear edema in mice in a dose-dependent manner
- Ear edema (right ear-left ear), mean ± S.D. ([3]; oral 10 mg/kg/day): 16.0 ± 0.7 mg
- Ear edema (right ear-left ear), mean ± S.D. ([3]; oral 30 mg/kg/day): 15.4 ± 0.5 mg
- Ear edema (right ear-left ear), mean ± S.D. ([3]; oral 100 mg/kg/day): 14.4 ± 0.5 mg
- Ear edema (right ear-left ear), mean ± S.D. [4]: 7.8 ± 0.4 mg
- Number of eosinophils (×10^6) ([5]; 0.01% solution nebulized, lung washings 24 hours after antigen, control 20.7 ± 2.95, p < 0.05): 8.9 ± 3.7 ×10^6
- Eosinophil in lung washings (in words) ([5]; inhalation, 0.01%): significant decrease in eosinophil in lung washings
- pIC50 [6]: 6.60
- Inhibition of leukocyte infiltration (in words) ([7]; administration into the nasal cavity): inhibited the leukocyte infiltration in TDI-induced guinea pig rhinitis dose-dependently
- Number of leukocytes, mean ± S.D. ([7]; 0.1 μg/site into nasal cavities): 12.7 ± 1.41 ×100 cells/μl
- Number of leukocytes, mean ± S.D. ([7]; 1 μg/site into nasal cavities): 7.1 ± 1.19 ×100 cells/μl
- Number of leukocytes, mean ± S.D. ([7]; 10 μg/site into nasal cavities): 2.8 ± 0.17 ×100 cells/μl
- Inhibition of adhesion of guinea pig peritoneal cells (in words) [8]: inhibited adhesion of guinea pig peritoneal cells to vascular endothelial cells in a concentration-dependent manner
- inhibition at 0.01 µM ([8]; Cavia porcellus, HUVEC, Compound A 0.01 μM, leukotriene B4 1 μM): -4.7%
- inhibition at 0.1 µM ([8]; Cavia porcellus, HUVEC, Compound A 0.1 μM, leukotriene B4 1 μM): 32.6%
- inhibition at 1 µM ([8]; Cavia porcellus, HUVEC, Compound A 1 μM, leukotriene B4 1 μM): 95.5%
- inhibition at 10 µM ([8]; Cavia porcellus, HUVEC, Compound A 10 μM, leukotriene B4 1 μM): 97.9%
- IC50 ([8]; Cavia porcellus, HUVEC, leukotriene B4 1 μM, read-out: concentration necessary for 50% inhibition (IC50 values, μM) of adhesion): ~0.2 µM
- Cell adhesion (absorbance at 520 nm) ([8]; Compound A 0.01 μM, leukotriene B4 1 μM): 0.222 absorbance at 520 nm
- Cell adhesion (absorbance at 520 nm) ([8]; Compound A 0.1 μM, leukotriene B4 1 μM): 0.169 absorbance at 520 nm
- Cell adhesion (absorbance at 520 nm) ([8]; Compound A 1 μM, leukotriene B4 1 μM): 0.080 absorbance at 520 nm
- Cell adhesion (absorbance at 520 nm) ([8]; Compound A 10 μM, leukotriene B4 1 μM): 0.077 absorbance at 520 nm

Compound: COc1ccccc1NC(=O)NC1N=C(c2ccc(Cl)cc2)c2c(sc(C)c2C)-n2c(C)nnc21 (single isomer, unassigned; (-)) [Compound B, (-)-N-(4-(4-chlorophenyl)-2,3,9-trimethyl-6H-thieno[3,2-f][1,2,4]triazolo[4,3-a][1,4]diazepin-6-yl)-N'-(2-methoxyphenyl)urea]
- pIC50 [6]: 7.20
